Assays:
[1] = refractive index (Na D-line) (dimensionless); conditions: 101.33 kPa, Liquid, Standard Abbe refractometry
[2] = 101.33 kPa, Liquid, Vibrating tube method

CCCCn1cc[n+](C)c1.F[P-](F)(F)(F)(F)F [1-butyl-3-methylimidazolium hexafluorophosphate]
Conditions	mass density, [2] [kg/m3]	refractive index, [1]
298.2 K	1363.9	1.4095
299.2 K	1363.2	1.4093
300.2 K	1362.4	1.4091
301.2 K	1361.6	1.4089
302.2 K	1360.8	1.4087
303.2 K	1360.1	1.4085
304.2 K	1359.3	1.4083
305.2 K	1358.5	1.4081
306.2 K	1357.8	1.4079
307.2 K	1357	1.4077
308.2 K	1356.2	1.4075
313.2 K	1352.8	–
318.2 K	1348.8	–
323.2 K	1344.9	–
333.2 K	1336.9	–
343.2 K	1329	–
353.2 K	1321.1	–

CCCCn1cc[n+](C)c1.COS(=O)(=O)[O-] [1-butyl-3-methylimidazolium methyl sulfate]
Conditions	mass density, [2] [kg/m3]	refractive index, [1]
298.2 K	1205.7	1.4792
299.2 K	1205	1.4789
300.2 K	1204.4	1.4787
301.2 K	1203.8	1.4784
302.2 K	1203.1	1.4782
303.2 K	1202.5	1.4779
304.2 K	1201.9	1.4776
305.2 K	1201.2	1.4774
306.2 K	1200.6	1.4771
307.2 K	1199.9	1.4768
308.2 K	1199.3	1.4766
313.2 K	1196.2	–
318.2 K	1193	–
323.2 K	1189.9	–
333.2 K	1183.5	–
343.2 K	1177	–
353.2 K	1170.6	–

CCCCn1cc[n+](C)c1.F[B-](F)(F)F [1-butyl-3-methylimidazolium tetrafluoroborate]
Conditions	mass density, [2] [kg/m3]	refractive index, [1]
298.2 K	1201	1.4218
299.2 K	1200.3	1.4216
300.2 K	1199.6	1.4213
301.2 K	1199	1.4211
302.2 K	1198.3	1.4208
303.2 K	1197.6	1.4206
304.2 K	1196.9	1.4204
305.2 K	1196.2	1.4201
306.2 K	1195.6	1.4199
307.2 K	1194.9	1.4197
308.2 K	1194.2	1.4195
313.2 K	1190.8	–
318.2 K	1187.4	–
323.2 K	1184	–
333.2 K	1177.2	–
343.2 K	1170.4	–
353.2 K	1163.6	–

CCCCn1cc[n+](C)c1.O=S(=O)([O-])C(F)(F)F [1-butyl-3-methylimidazolium trifluoromethanesulfonate]
Conditions	mass density, [2] [kg/m3]	refractive index, [1]
298.2 K	1303.8	1.4368
299.2 K	1303	1.4366
300.2 K	1302.3	1.4364
301.2 K	1301.5	1.4362
302.2 K	1300.8	1.436
303.2 K	1300	1.4357
304.2 K	1299.2	1.4355
305.2 K	1298.5	1.4352
306.2 K	1297.7	1.435
307.2 K	1297	1.4348
308.2 K	1296.2	1.4346
313.2 K	1292.4	–
318.2 K	1288.6	–
323.2 K	1284.7	–
333.2 K	1277.1	–
343.2 K	1269.5	–
353.2 K	1261.9	–

From the NIST ThermoML archive (doi:10.1016/j.jct.2008.08.010)
